Measurements as given in patent publication US7109338B2, “1,2-disubstituted 1,4-dihydro-4-oxoquinoline compounds” (priority 1999, dated 2006).
Converted amounts (≈) assume the structure as drawn.

Key:
[1] = tested on: human rhinovirus type 1B (HRV 1B, B632); experiment: Anti-rhinovirus activity (MTT), HRV1B; format: cell-based; settings: HeLa (Ohio strain) cells, MTT method, 33° C.
[2] = tested on: echovirus type 11 (Echo 11, Gregory); experiment: In vitro anti-picornavirus activity (MTT), Echo 11; format: cell-based; settings: HeLa-S3 cells, MTT method, 37° C.
[3] = tested on: HRV 89 (41617-Gallo); experiment: Anti-rhinovirus activity (MTT), HRV89; format: cell-based, human rhinovirus; settings: HeLa (Ohio strain) cells, MTT method, 33° C.
[4] = tested on: coxsackievirus type A7 (CA7); experiment: In vitro anti-picornavirus activity (MTT), CA7; format: cell-based; settings: HeLa-S3 cells, MTT method, 37° C.
[5] = tested on: HeLa cells; experiment: Cytotoxicity (MTT, without virus), HeLa; settings: HeLa, no virus, incubated for 4 days
[6] = tested on: HRV 2 (HGP); experiment: Anti-rhinovirus activity (MTT), HRV2; format: cell-based, human rhinovirus; settings: HeLa (Ohio strain) cells, MTT method, 33° C.
[7] = tested on: Poliovirus type 1 (Polio 1, Sabin); experiment: microbe, parasite or virus in culture; format: cell-based
[8] = tested on: HeLa-S3 cells; experiment: Cytotoxicity (MTT, without virus), HeLa-S3; settings: HeLa-S3, no virus, incubated for 4 days
[9] = tested on: HeLa (Ohio strain)cells; experiment: Cytotoxicity (MTT, without virus), HeLa(Ohio); settings: HeLa(Ohio), no virus, incubated for 4 days
[10] = tested on: coxsackievirus type B4 (CB4,JVB); experiment: In vitro anti-picornavirus activity (MTT), CB4; format: cell-based; settings: HeLa cells, MTT method, 37° C.

Structure (SMILES)	IC50 HRV1B [1] [µg/mL]	IC50 Echo 11 [2] [µg/mL]	IC50 HRV89 [3] [µg/mL]	IC50 CA7 [4] [µg/mL]	Cytotoxicity CC50 HeLa [5] [µg/mL]	IC50 HRV2 [6] [µg/mL]	IC50 Polio 1 [7] [µg/mL]	Cytotoxicity CC50 HeLa-S3 [8] [µg/mL]	Cytotoxicity CC50 HeLa(Ohio) [9] [µg/mL]	IC50 CB4 [10] [µg/mL]
COc1ccc(-c2c(C)c(=O)c3cc(C(C)C)ccc3n2C)cc1 [Compound A81]	1.7 (≈ 5.29 µM)	0.52 (≈ 1.62 µM)	0.55 (≈ 1.71 µM)	0.78 (≈ 2.43 µM)	6.5	0.86 (≈ 2.68 µM)	0.78 (≈ 2.43 µM)	7.6	5.8	2.2 (≈ 6.84 µM)
Cc1c(-c2cccs2)n(C)c2ccc(OCC(C)C)c(C)c2c1=O [Compound A318]	0.45 (≈ 1.32 µM)	0.27 (≈ 0.791 µM)	0.16 (≈ 0.469 µM)	2.0 (≈ 5.86 µM)	>2.5	0.38 (≈ 1.11 µM)	0.47 (≈ 1.38 µM)	>2.5	>2.5	0.65 (≈ 1.9 µM)
CCn1c(-c2ccc(C)s2)cc(=O)c2cc(C(C)C)ccc21 [Compound A315]	0.52 (≈ 1.67 µM)	0.30 (≈ 0.963 µM)	0.26 (≈ 0.835 µM)	1.2 (≈ 3.85 µM)	7.1	0.28 (≈ 0.899 µM)	0.54 (≈ 1.73 µM)	>10	>10	0.63 (≈ 2.02 µM)
Cc1c(-c2ccccc2)n(-c2ccccc2F)c2ccc(C(C)C)cc2c1=O [Compound A321]	0.60 (≈ 1.62 µM)	–	0.066 (≈ 0.178 µM)	–	–	0.056 (≈ 0.151 µM)	–	–	>1	–
Cc1c(OCC(C)C)ccc2c1c(=O)cc(-c1ccccc1)n2C [Compound A186]	1.1 (≈ 3.42 µM)	0.27 (≈ 0.84 µM)	0.26 (≈ 0.809 µM)	3.0 (≈ 9.33 µM)	>5	>1.7	0.67 (≈ 2.08 µM)	>5	5.0	1.2 (≈ 3.73 µM)
CCn1c(-c2ccccc2)cc(=O)c2c(C)c(OCC(C)C)ccc21 [Compound A187]	0.71 (≈ 2.12 µM)	0.21 (≈ 0.626 µM)	0.15 (≈ 0.447 µM)	3.0 (≈ 8.94 µM)	>4	0.57 (≈ 1.7 µM)	0.53 (≈ 1.58 µM)	>4	>4	0.99 (≈ 2.95 µM)
CCCOc1ccc2c(c1)c(=O)c(C)c(-c1ccccc1)n2CC [Compound A32]	1.0 (≈ 3.11 µM)	0.40 (≈ 1.24 µM)	0.77 (≈ 2.4 µM)	1.9 (≈ 5.91 µM)	9.7	0.55 (≈ 1.71 µM)	0.93 (≈ 2.89 µM)	>10	>10	>3.3
COc1ccc(-c2c(C)c(=O)c3c(C)c(OCC(C)C)ccc3n2C)cc1C [Compound A190]	2.0 (≈ 5.27 µM)	0.23 (≈ 0.606 µM)	0.28 (≈ 0.738 µM)	3.2 (≈ 8.43 µM)	>4	0.57 (≈ 1.5 µM)	0.58 (≈ 1.53 µM)	>4	>4	2.4 (≈ 6.32 µM)
CCn1c(-c2ccsc2)cc(=O)c2cc(C(C)C)ccc21 [Compound A313]	0.90 (≈ 3.03 µM)	0.35 (≈ 1.18 µM)	0.96 (≈ 3.23 µM)	3.8 (≈ 12.8 µM)	18	0.33 (≈ 1.11 µM)	0.94 (≈ 3.16 µM)	>20	15	3.0 (≈ 10.1 µM)
CCn1c(-c2cccs2)cc(=O)c2cc(C(C)C)ccc21 [Compound A309]	0.48 (≈ 1.61 µM)	0.28 (≈ 0.941 µM)	0.58 (≈ 1.95 µM)	3.3 (≈ 11.1 µM)	12	0.25 (≈ 0.841 µM)	0.76 (≈ 2.56 µM)	18	14	1.5 (≈ 5.04 µM)
